The values that follow come from ChEMBL document CHEMBL1201862, “PubChem BioAssay data set” (2004).

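Compound exposure: 48 hours, 5 concentrations, 96-well plates. GI50 = concentration required for 50% inhibition of growth.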 Calls of active or inactive are those of the source. No stated cut-off is given here; in the data, active = GI50 up to about 1.1 µM and inactive = higher. Where only a bound is given, the exact number is not on record here.

Test systems include DU-145; MDA-N; NCI-H23; SNB-75; SK-MEL-2; HT-29; A498; OVCAR-4; SK-MEL-28; HCC 2998; COLO 205; SK-MEL-5; SK-OV-3; NCI-H460; SF-268; K562; NCI/ADR-RES; SNB-19; MCF7.
Common to all, as to assay: NCI tumour cell line growth inhibition, 48 h

As for `CO[C@H]1C[C@H](O[C@H]2CC[C@]3(C=O)[C@H]4CC[C@]5(C)[C@@H](C6=CC(=O)OC6)CC[C@]5(O)[C@@H]4CC[C@]3(O)C2)O[C@H](C)[C@H]1O[C@@H]1O[C@H](CO)[C@@H](O)[C@H](O)[C@H]1O`, the GI50 was 6.34e-06 µM (active) in the experiment on DU-145; 3.94e-05 µM (active) with MDA-N; 7.87e-06 µM (active) in the experiment with NCI-H23; 5.1e-05 µM (active) with SNB-75; 8.26e-05 µM (active) in the experiment with SK-MEL-2; 3.03e-05 µM (active) in the experiment with HT-29. Further, the GI50 in the experiment on A498 was 5.81e-05 µM (active); in the experiment with OVCAR-4 it was 8.63e-06 µM (active); in the experiment on SK-MEL-28, 6.43e-05 µM (active); in the experiment on HCC 2998, > 0.01 µM (active); in the experiment with COLO 205, 0.00011 µM (active); in the experiment with SK-MEL-5, 2.62e-05 µM (active). The GI50 with SK-OV-3 was 4.23e-05 µM (active); with NCI-H460, 9.04e-06 µM (active); in the experiment on SF-268, 1.19e-05 µM (active); in the experiment with K562, > 0.01 µM (active); in the experiment on NCI/ADR-RES it was 1.15e-05 µM (active); with SNB-19 it was 8.93e-05 µM (active).

`c1ccc2nc3c(nc2c1)sc1ccccc13`: the GI50 in the experiment on MCF7 is 26.5 µM (inactive); in the experiment on DU-145 it was 50 µM (inactive); in the experiment on NCI-H23 it was 23.2 µM (inactive); in the experiment on SNB-75 it was 22.2 µM (inactive); in the experiment on SK-MEL-2, 67.5 µM (inactive); in the experiment with HT-29 it was 39.4 µM (inactive). For the same molecule, the GI50 in the experiment on A498 was 27.4 µM (inactive); with OVCAR-4 it was 17.5 µM (inactive); in the experiment on SK-MEL-28, > 100 µM (inactive); in the experiment with HCC 2998 it was 32.9 µM (inactive); in the experiment on COLO 205 it was 58.3 µM (inactive); in the experiment with SK-MEL-5, 30.9 µM (inactive). The GI50 in the experiment on SK-OV-3 is 13.2 µM (inactive); in the experiment on NCI-H460, 13.6 µM (inactive); with SF-268, 20.7 µM (inactive); with K562 it was > 100 µM (inactive); in the experiment on NCI/ADR-RES, 39.7 µM (inactive); in the experiment on SNB-19, 14.5 µM (inactive).

Take `CSc1nc2c(c(N(C)C)n1)C=Nn1c(nc3ccccc31)S2`: the GI50 in the experiment with DU-145 was 78 µM (inactive); with MDA-N it was 95.1 µM (inactive); with NCI-H23 it was > 100 µM (inactive); in the experiment with SNB-75, 64.1 µM (inactive); in the experiment on SK-MEL-2, > 100 µM (inactive); in the experiment with HT-29, > 100 µM (inactive). Also, the GI50 with A498 was > 100 µM (inactive); in the experiment on OVCAR-4, 81.8 µM (inactive); with SK-MEL-28 it was > 100 µM (inactive); in the experiment on HCC 2998, 70.5 µM (inactive); with COLO 205 it was > 100 µM (inactive); in the experiment on SK-MEL-5 it was 52.1 µM (inactive). Moreover, the GI50 is > 100 µM (inactive) with SK-OV-3; 89.1 µM (inactive) in the experiment on NCI-H460; 60.4 µM (inactive) with SF-268; > 100 µM (inactive) with K562; > 100 µM (inactive) in the experiment on NCI/ADR-RES; > 100 µM (inactive) in the experiment on SNB-19.

`Sc1cnnc2ccc(Br)cc12`: the GI50 in the experiment with MCF7 is 34.7 µM (inactive); in the experiment on DU-145 it was 50.7 µM (inactive); in the experiment with NCI-H23, 28.8 µM (inactive); in the experiment on SNB-75, > 100 µM (inactive); with SK-MEL-2 it was 26.6 µM (inactive); in the experiment with HT-29 it was 26.4 µM (inactive). Further, the GI50 is 53.3 µM (inactive) in the experiment with A498; 35.9 µM (inactive) in the experiment with OVCAR-4; 40.4 µM (inactive) in the experiment on SK-MEL-28; 34.6 µM (inactive) in the experiment with HCC 2998; > 100 µM (inactive) in the experiment on COLO 205; 32.1 µM (inactive) with SK-MEL-5. Also, the GI50 is > 100 µM (inactive) in the experiment with SK-OV-3; 35.6 µM (inactive) with NCI-H460; 58.7 µM (inactive) in the experiment with SF-268; 37.8 µM (inactive) in the experiment with K562; 48.6 µM (inactive) with NCI/ADR-RES; 74.3 µM (inactive) in the experiment with SNB-19.

On to `CN1C(=O)C(=CNc2ccccc2[N+](=O)[O-])C(=O)N(C)C1=O`, for which the GI50 in the experiment on MCF7 is 10 µM (inactive); in the experiment on MDA-N, > 100 µM (inactive); in the experiment on NCI-H23 it was > 100 µM (inactive); in the experiment on SNB-75, > 100 µM (inactive); in the experiment on SK-MEL-2 it was > 100 µM (inactive); with HT-29, > 100 µM (inactive). In addition, the GI50 with A498, in the experiment with OVCAR-4, in the experiment on HCC 2998, in the experiment on COLO 205, in the experiment on SK-MEL-5 and in the experiment with SK-OV-3 was > 100 µM (inactive) each time. Also, the GI50 in the experiment with NCI-H460, in the experiment with SF-268, in the experiment with K562, with NCI/ADR-RES and in the experiment on SNB-19 was > 100 µM (inactive) throughout.

Take `Cn1c(=O)n2n(c1=O)C1C(=CC2)C2C=CC1n1c(=O)n(C)c(=O)n12` (stereo not given): the GI50 with DU-145, with MDA-N, with NCI-H23, in the experiment on SNB-75, in the experiment with SK-MEL-2 and in the experiment with HT-29 was > 100 µM (inactive) throughout. The GI50 in the experiment with A498, in the experiment with SK-MEL-28, in the experiment on COLO 205, in the experiment with SK-MEL-5, with SK-OV-3 and with NCI-H460 was > 100 µM (inactive) throughout. Also, the GI50 with SF-268, with K562, in the experiment on NCI/ADR-RES and in the experiment with SNB-19 was > 100 µM (inactive) each time.

Turning to `CN(C)c1n/c(=N/Cc2cccnc2)ss1`, the GI50 with DU-145, in the experiment with MDA-N, in the experiment on NCI-H23, in the experiment on SNB-75, in the experiment on HT-29 and with OVCAR-4 was > 10 µM (inactive) in each case. Further, the GI50 in the experiment on SK-MEL-28 was > 10 µM (inactive); in the experiment on COLO 205 it was > 10 µM (inactive); in the experiment with SK-MEL-5 it was > 10 µM (inactive); in the experiment on SK-OV-3, > 10 µM (inactive); in the experiment on SF-268, > 10 µM (inactive); in the experiment with K562, 1.12 µM (active).

`O=C(N/N=C1\C(=O)Nc2c(Cl)cc(Cl)cc21)C(=O)Nc1cccc(C(F)(F)F)c1`: the GI50 in the experiment on MCF7 was > 100 µM (inactive); in the experiment on MDA-N it was 54 µM (inactive); in the experiment on NCI-H23, > 100 µM (inactive); with SNB-75, > 100 µM (inactive); in the experiment with SK-MEL-2 it was > 100 µM (inactive); with HT-29 it was > 100 µM (inactive). Besides, the GI50 in the experiment on A498, with OVCAR-4, with SK-MEL-28, with HCC 2998, in the experiment with COLO 205 and in the experiment on SK-MEL-5 was > 100 µM (inactive) throughout. The GI50 in the experiment with SK-OV-3, in the experiment on NCI-H460, with NCI/ADR-RES and in the experiment on SNB-19 was > 100 µM (inactive) in each case.

With `COC(=O)CCCc1ccc2c(c1)CC1(Cc3ccccc3C1)C2`, the GI50 in the experiment on MCF7 is 53.6 µM (inactive); in the experiment on MDA-N, 23.2 µM (inactive); in the experiment on NCI-H23 it was 46.3 µM (inactive); with SK-MEL-2, 19.5 µM (inactive); in the experiment on HT-29, 31 µM (inactive); in the experiment with A498, 59.2 µM (inactive). For the same molecule, the GI50 in the experiment on OVCAR-4 was 63 µM (inactive); in the experiment with HCC 2998, 70.1 µM (inactive); in the experiment with COLO 205, 26.3 µM (inactive); with SK-MEL-5, 20.1 µM (inactive); in the experiment on SK-OV-3, > 100 µM (inactive); in the experiment with NCI/ADR-RES it was 80 µM (inactive).
